We go through 14 compounds from ChEMBL document CHEMBL5576132 (J Med Chem, 2024).

Calls of active or inactive are those of the source. The calls are words filed in the database; no cut-off is given here. Where only a bound is given, the exact number is not on record here.

In data set [1] the test system is NCI-H1048. Nature of the data set: Antitumor activity against human NCI-H1048 cells xenografted in BomTac:NMRI-Foxn1nu mouse model assessed as tumor growth inhibition at 60 mg/kg, iv administered daily for 7 days and measured upto 16 days in presence of topotecan relative to control. The note with it: NCI-H1048, 384 h, time <= 16 day, read-out: TGI. It counts as functional.

Data set [2] is described as follows: Dose normalized AUC in mouse at 25 mg/kg, iv by HPLC-MS/MS analysis. It counts as ADME, organism-based. The note with it: in vivo.
Data set [3] can be described thus: Dose normalized AUC in mouse at 20 mg/kg, iv by HPLC-MS/MS analysis. The following applies: in vivo. The class given is ADME, organism-based.
Data set [4] in a line: Clearance in dog assessed as hepatic blood flow at 0.25 mg/kg, iv by HPLC-MS/MS analysis. The class given is ADME, organism-based, Canis lupus familiaris, Liver. The note with it: in vivo.
Data set [5] in a line: Clearance in dog assessed as hepatic blood flow at 0.9 mg/kg, iv by HPLC-MS/MS analysis. The class given is ADME, organism-based, Canis lupus familiaris, Liver. The note with it: in vivo.
For data set [6], the system named is NCI-H929. The experiment in a line: Growth inhibition of human NCI-H929 cells measured after 72 to 96 hrs by cell-titer glo assay. The note with it: time 72-96 hrs. It counts as functional.
Data set [7] deals with K562. Nature of the data set: Growth inhibition of human K562 cells measured after 72 to 96 hrs by cell-titer glo assay. It counts as functional. The following applies: time 72-96 hrs.
The nature of data set [8]: Dose normalized AUC in mouse at 5 mg/kg, iv by HPLC-MS/MS analysis. It counts as ADME, organism-based. The note with it: in vivo.
In data set [9] the target is Induced myeloid leukemia cell differentiation protein Mcl-1 (Homo sapiens) (UniProt Q07820). The note with it: time 3.0 hrs.
Data set [10] can be described thus: Clearance in dog assessed as hepatic blood flow at 0.5 mg/kg, iv by HPLC-MS/MS analysis. The class given is ADME, organism-based, Canis lupus familiaris, Liver. The note with it: in vivo.
Data set [11] addresses T1, Cytochrome P450 3A4 (Homo sapiens, UniProt P08684). Nature of the data set: Inhibition of CYP3A4 (unknown origin). It counts as ADME.
Data set [12] concerns the target T2, Cytochrome P450 2C8 (Homo sapiens, UniProt P10632).
T2 sequence (P10632 whole entry): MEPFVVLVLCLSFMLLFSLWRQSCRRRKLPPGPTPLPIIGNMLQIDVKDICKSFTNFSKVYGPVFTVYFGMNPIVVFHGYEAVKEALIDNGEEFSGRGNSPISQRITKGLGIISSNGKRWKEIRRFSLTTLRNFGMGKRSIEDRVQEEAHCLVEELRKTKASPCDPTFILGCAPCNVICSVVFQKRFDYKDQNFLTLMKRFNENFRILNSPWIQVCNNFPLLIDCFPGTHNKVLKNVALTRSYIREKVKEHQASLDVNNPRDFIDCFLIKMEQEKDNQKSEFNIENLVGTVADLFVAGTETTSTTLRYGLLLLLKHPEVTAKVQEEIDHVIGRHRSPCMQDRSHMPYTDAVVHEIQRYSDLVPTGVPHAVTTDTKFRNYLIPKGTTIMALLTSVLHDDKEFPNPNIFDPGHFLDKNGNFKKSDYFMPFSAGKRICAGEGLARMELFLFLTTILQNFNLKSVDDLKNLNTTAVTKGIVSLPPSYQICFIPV
Nature of the data set: Inhibition of CYP2C8 (unknown origin). The class given is ADME.

The target in data set [13] is T1, Cytochrome P450 3A4. Nature of the data set: Time dependent inhibition of CYP3A4 (unknown origin) relative to control. It counts as ADME.
In data set [14] the test system is A-427. The experiment in a line: Antiproliferative activity against human A-427 cells at upto 1000 nM measured after 72 to 96 hrs in presence of docetaxel by cell-titer glo assay. The class given is functional, cell-based. The following applies: time 72-96 hrs.
Data set [15] can be described thus: Toxicity in CB17/Icr-Prkdc(scid)/IcrCrl mouse assessed as effect on body weight at 60 to 80 mg/kg, iv administered as single dose measured after 15 days. It counts as organism-based. The following applies: in vivo, 360 h, dose 60-80 mg/kg, time 15 day.
The test system of data set [16] is NCI-H929. Nature of the data set: Antitumor activity against human NCI-H929 cells xenografted in CB17/Icr-Prkdc(scid)/IcrCrl mouse assessed as disruption of Mcl-1:BIM complex. It counts as functional, cell-based. The note with it: time <= 48.0 hrs, TDE = time-dependent effect.
Data set [17] concerns NCI-H929. Nature of the data set: Antitumor activity against human NCI-H929 cells xenografted in CB17/Icr-Prkdc(scid)/IcrCrl mouse model assessed as increase in […] activity measured upto 48 hrs by glo reagent based analysis. The class given is functional, cell-based.
Data set [18] in a line: AUC in CB17/Icr-Prkdc(scid)/IcrCrl mouse at 60 mg/kg, iv administered daily for 7 days and measured upto 21 days in presence of docetaxel. The class given is ADME, organism-based. The following applies: in vivo, time < 21 day.
Data set [19] can be described thus: Plasma protein binding (unknown origin). The class given is ADME, cell-free. The following applies: read-out: PPB (converted).
Data set [20] concerns NCI-H1048. Nature of the data set: Antitumor activity against human NCI-H1048 cells xenografted in BomTac:NMRI-Foxn1nu mouse model assessed as tumor growth regression at 60 mg/kg, iv administered daily for 7 days and measured upto 16 days in presence of topotecan. The following applies: time <= 16.0 day. The class given is functional, organism-based.
Data set [21] is described as follows: Toxicity in CB17/Icr-Prkdc(scid)/IcrCrl mouse assessed as reduction in tumor area at 60 mg/kg, iv measured after 21 days by H and E staining based analysis. It counts as organism-based. The following applies: in vivo, 504 h, time 21 day.
Data set [22] can be described thus: Toxicity in CB17/Icr-Prkdc(scid)/IcrCrl mouse assessed as reduction in tumor area at 60 mg/kg, iv measured after 21 days by Ki67 staining based analysis. It counts as organism-based. The note with it: in vivo, 504 h, time 21 day.
The nature of data set [23]: Toxicity in CB17/Icr-Prkdc(scid)/IcrCrl mouse assessed as reduction in tumor area at 60 mg/kg, iv measured after 21 days in presence of docetaxel by H and E staining based analysis. The class given is organism-based. The following applies: in vivo, 504 h, time 21 day.
Data set [24] in a line: Toxicity in CB17/Icr-Prkdc(scid)/IcrCrl mouse assessed as reduction in tumor area at 60 mg/kg, iv measured after 21 days presence of docetaxel by Ki67 staining based analysis. The class given is organism-based. The following applies: in vivo, 504 h, time 21 day.
A short description of data set [25]: AUC in CB17/Icr-Prkdc(scid)/IcrCrl mouse at 60 mg/kg, iv administered daily for 7 days and measured upto 21 days in presence of (R)-7-(7-Chloro-10-(3-(4-chloro-3,5-dimethylphenoxy)propyl)-4-methyl-1-oxo-6-(2,4,6-trimethylpyrimidin-5-yl)-3,4-dihydropyrazino[1,2-a]indol-2(1H)-yl)-4-methoxy-1-methyl-5-((tetrahydro-2H-pyran-4-yl)methoxy)-1H-indole-2-carboxylic Acid. The class given is ADME, organism-based. The note with it: in vivo, time < 21 day.

Data set [26] has as its system A-427. Nature of the data set: Antitumor activity against human A-427 cells xenografted in CB17/Icr-Prkdc(scid)/IcrCrl mouse model assessed as tumor regression at 10 mg/kg, iv administered daily for 7 days and measured upto 21 days. The following applies: time <= 21.0 day. The class given is functional, organism-based.
For data set [27], the system named is A-427. The experiment in a line: Antitumor activity against human A-427 cells xenografted in CB17/Icr-Prkdc(scid)/IcrCrl mouse model assessed as tumor regression at 60 mg/kg, iv administered daily for 7 days and measured upto 21 days in presence of docetaxel. The class given is functional, organism-based. The note with it: time <= 21.0 day.
A short description of data set [28]: Toxicity in CB17/Icr-Prkdc(scid)/IcrCrl mouse assessed as reduction in tumor area at 10 mg/kg, iv measured after 21 days by H and E staining based analysis. It counts as organism-based. The note with it: in vivo, 504 h, time 21 day.
The nature of data set [29]: Toxicity in CB17/Icr-Prkdc(scid)/IcrCrl mouse assessed as reduction in tumor area at 10 mg/kg, iv measured after 21 days by Ki67 staining based analysis. The class given is organism-based. The following applies: in vivo, 504 h, time 21 day.

T1 sequence (P08684 whole entry): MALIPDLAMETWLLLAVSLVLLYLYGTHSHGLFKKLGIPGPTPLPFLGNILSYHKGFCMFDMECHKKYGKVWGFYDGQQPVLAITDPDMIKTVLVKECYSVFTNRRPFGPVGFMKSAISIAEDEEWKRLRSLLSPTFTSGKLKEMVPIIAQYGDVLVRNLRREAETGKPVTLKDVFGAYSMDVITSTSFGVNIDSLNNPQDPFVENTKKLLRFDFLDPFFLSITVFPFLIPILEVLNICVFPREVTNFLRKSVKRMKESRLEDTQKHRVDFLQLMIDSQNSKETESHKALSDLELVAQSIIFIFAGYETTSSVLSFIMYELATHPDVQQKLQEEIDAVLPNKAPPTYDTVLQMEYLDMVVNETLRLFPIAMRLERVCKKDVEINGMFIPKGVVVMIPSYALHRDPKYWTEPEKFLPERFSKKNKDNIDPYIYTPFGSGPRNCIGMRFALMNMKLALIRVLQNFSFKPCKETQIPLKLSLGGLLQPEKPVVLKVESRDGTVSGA
Induced myeloid leukemia cell differentiation protein Mcl-1 (Homo sapiens), sequence (Q07820 whole entry): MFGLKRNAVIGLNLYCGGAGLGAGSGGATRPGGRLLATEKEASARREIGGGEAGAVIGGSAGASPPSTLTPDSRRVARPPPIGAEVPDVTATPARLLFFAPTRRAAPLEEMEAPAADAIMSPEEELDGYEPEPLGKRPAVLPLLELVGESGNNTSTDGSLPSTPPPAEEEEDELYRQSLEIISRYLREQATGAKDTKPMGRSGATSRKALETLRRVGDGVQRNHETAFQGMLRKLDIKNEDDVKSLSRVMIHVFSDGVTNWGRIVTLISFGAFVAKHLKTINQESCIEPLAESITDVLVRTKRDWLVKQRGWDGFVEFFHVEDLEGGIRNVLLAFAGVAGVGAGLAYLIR

On to `CC[C@@]1(O)C(=O)OCc2c1cc1n(c2=O)Cc2cc3c(CN(C)C)c(O)ccc3nc2-1` [TOPOTECAN], for which the inhibition in vivo at 60 mg/kg in data set [1] is 108%.
Consider `COc1c(OC[C@H]2CCCO2)cc(N2C[C@@H](C)n3c(c(CCCOc4cc(C)c(Cl)c(C)c4)c4ccc(Cl)c(-c5c(C)ncnc5C)c43)C2=O)c2c1cc(C(=O)O)n2C`, for which the AUC/dose in data set [2] was 1480 nM·h/mg/kg.
`CCOc1c(OCC2CCOCC2)cc(N2C[C@@H](C)n3c(c(CCCOc4cc(C)c(Cl)c(C)c4)c4ccc(Cl)c(-c5c(C)nc(C)nc5C)c43)C2=O)c2c1cc(C(=O)O)n2C` returned an AUC/dose in [3] of 4930 nM·h/mg/kg.
Take `COCCOc1cc(N2C[C@@H](C)n3c(c(CCCOc4cc(C)c(Cl)c(C)c4)c4ccc(Cl)c(-c5c(C)nc(C)nc5C)c43)C2=O)c2c(cc(C(=O)O)n2C)c1OC`: the AUC/dose in data set [2] worked out at 334 nM·h/mg/kg. Also, the QH in [4] stood at 50%.
Consider `COc1c(OCC2CCOCC2)cc(N2C[C@@H](C)n3c(c(CCCOc4cc(C)c(Cl)c(C)c4)c4ccc(Cl)c(-c5c(C)ncnc5C)c43)C2=O)c2c1cc(C(=O)O)n2C`, for which the AUC/dose in [3] amounted to 2830 nM·h/mg/kg.
On to `COc1c(OC[C@@H]2CCCO2)cc(N2C[C@@H](C)n3c(c(CCCOc4cc(C)c(Cl)c(C)c4)c4ccc(Cl)c(-c5c(C)nc(C)nc5C)c43)C2=O)c2c1cc(C(=O)O)n2C`, for which the AUC/dose in data set [3] amounted to 2190 nM·h/mg/kg. Also, the QH in data set [5] came out at 29%.
With `COc1c(O[C@H]2CCOC2)cc(N2C[C@@H](C)n3c(c(CCCOc4cc(C)c(Cl)c(C)c4)c4ccc(Cl)c(-c5c(C)nc(C)nc5C)c43)C2=O)c2c1cc(C(=O)O)n2C`, the 50% growth inhibitory concentration (GI50) in [6] is 0.022 µM; in data set [7] it was 8 µM. The AUC/dose in data set [8] amounted to 1860 nM·h/mg/kg. The QH in data set [5] is reported as 38%.
In the case of `COc1c(OC[C@H]2CCCO2)cc(N2C[C@@H](C)n3c(c(CCCOc4cc(C)c(Cl)c(C)c4)c4ccc(Cl)c(-c5c(C)nc(C)nc5C)c43)C2=O)c2c1cc(C(=O)O)n2C`, the AUC/dose in data set [3] stood at 2510 nM·h/mg/kg.
Regarding `Cc1cc(OCCCc2c3n(c4c(-c5c(C)nn(C)c5C)c(Cl)ccc24)[C@H](C)CN(c2cccc4cc(C(=O)O)n(C)c24)C3=O)cc(C)c1Cl`, the result in data set [9] was inactive.
With `COc1c(O[C@@H]2CCOC2)cc(N2C[C@@H](C)n3c(c(CCCOc4cc(C)c(Cl)c(C)c4)c4ccc(Cl)c(-c5c(C)nc(C)nc5C)c43)C2=O)c2c1cc(C(=O)O)n2C`, the figures for the GI50 in [6] and in data set [7] were 0.026 µM and more than 12 µM, respectively. Further, the AUC/dose in data set [3] was 1420 nM·h/mg/kg.
Compound `CCOc1c(O[C@H]2CCOC2)cc(N2C[C@@H](C)n3c(c(CCCOc4cc(C)c(Cl)c(C)c4)c4ccc(Cl)c(-c5c(C)nc(C)nc5C)c43)C2=O)c2c1cc(C(=O)O)n2C` showed an AUC/dose in data set [3] of 2460 nM·h/mg/kg.
Compound `COCCOc1cc(N2C[C@@H](C)n3c(c(CCCOc4cc(C)c(Cl)c(C)c4)c4ccc(Cl)c(-c5c(C)ncnc5C)c43)C2=O)c2c(cc(C(=O)O)n2C)c1OC` had an AUC/dose in [2] of 380 nM·h/mg/kg.
`COc1c(OCC2CCOCC2)cc(N2C[C@@H](C)n3c(c(CCCOc4cc(C)c(Cl)c(C)c4)c4ccc(Cl)c(-c5c(C)nc(C)nc5C)c43)C2=O)c2c1cc(C(=O)O)n2C` gave an AUC/dose in data set [2] of 9000 nM·h/mg/kg. Moreover, in data set [10], the QH was 17%. Moreover, the concentration for half-maximal inhibition (IC50) in data set [11] worked out at 1.8 µM; in [12], 2.1 µM. This compound also registered a TDI in data set [13] of 67%. The result in [14], in data set [17] and in [20] was Active. For the same compound, the Activity entry in data set [15] was “Non-Toxic”; in [16] it was “Tde”; in data set [21], “Non-Toxic”; in data set [22] it was “Non-Toxic”; in data set [23], “Non-Toxic”; in data set [24] it was “Non-Toxic”. For the same compound, in [18], the area under the curve (AUC) at 504 h is 0.382 µM·h. In addition, the fraction unbound in [19] is 0.002.
Consider `CC(=O)O[C@@]12CO[C@@H]1C[C@H](O)[C@@]1(C)C(=O)[C@H](O)C3=C(C)[C@@H](OC(=O)[C@H](O)[C@@H](NC(=O)OC(C)(C)C)c4ccccc4)C[C@@](O)([C@@H](OC(=O)c4ccccc4)[C@H]21)C3(C)C` [DOCETAXEL ANHYDROUS], for which the area under the curve (AUC) at 504 h in data set [25] is 0.0234 µM·h. The outcome in [26] and in data set [27] was Active. For the same compound, the Activity entry in data set [28] and in data set [29] was “Non-Toxic” each time.
